Read-outs that look alike come from different tables or passages of the source.
Tests used:
[1] = tested on: influenza A/Lyon/969/09 (H1N1)pdm09 virus; type: cell-based
[2] = tested on: MucilAir® human airway epithelium; type: cell-based
[3] = tested on: influenza A/Quebec/144147/09 (H1N1)pdm09 virus; type: in vivo, C57BL/6N mice
[4] = tested on: influenza A/Quebec/144147/09 (H1N1)pdm09 virus; type: in vivo, C57BL/6N mice; remark: listed apart in the source
B/Massachusetts/2/2106 = assay: Antiviral efficacy in A549 cells, B strain; type: cell-based, influenza virus
[5] = tested on: MucilAir® human airway epithelia (HAE); assay: LDH cytotoxicity in HAE; settings: oseltamivir 1 μM, diltiazem 90 μM, combinations
A(H1N1)pdm09 virus = type: cell-based, influenza virus
A/Texas/126/2016 (H3N2) = assay: Antiviral efficacy in A549 cells, H3N2 strain; type: cell-based, influenza virus
[6] = tested on: A/Lyon/969/09 (H1N1)pdm09 virus; assay: microbe, parasite or virus in culture; type: cell-based, influenza A(H1N1)pdm09 virus; settings: Influenza A virus, H1N1, 48 h; pre-treatment/treatment in vitro; A549; […]; read-out: EC50
[7] = 24 h p.i., oseltamivir 0.1 µM, diltiazem 9 µM or both
[8] = 48 h p.i., oseltamivir 0.1 µM, diltiazem 9 µM or both
[9] = 72 h p.i., oseltamivir 0.1 µM, diltiazem 9 µM or both
[10] = 96 h p.i., oseltamivir 0.1 µM, diltiazem 9 µM or both
[11] = oseltamivir 1 μM, diltiazem 90 μM
[12] = […], oseltamivir 10 mg/kg/day, diltiazem 90 mg/kg/day

COc1ccc([C@@H]2Sc3ccccc3N(CCN(C)C)C(=O)[C@@H]2OC(C)=O)cc1 [Diltiazem]
Apical viral titer log TCID50/ml (CI95) [1, 7]: 6.47 (5.03 – 7.90) log TCID50/ml
Apical viral titer log TCID50/ml (CI95) [1, 8]: 8.91 (8.67 – 9.16) log TCID50/ml
Apical viral titer log TCID50/ml (CI95) [1, 9]: 8.21 (7.28 – 9.14) log TCID50/ml
Apical viral titer log TCID50/ml (CI95) [1, 10]: 7.32 (6.43 – 8.22) log TCID50/ml
Apical viral titer log TCID50/ml (CI95) ([1]; 96 h p.i., oseltamivir 1 µM, diltiazem 90 µM or both): 7.37 (5.97 – 8.76) log TCID50/ml
Effect on viral replication vs untreated control ([1]; oseltamivir 0.1 μM, diltiazem 9 μM (CMAP) or both, from 5 h p.i., once daily 5 days): no significant advantage over the untreated control
Reduction in apical viral titers at 48 h p.i. compared to the untreated control [1, 11]: > 3 log
Virus on the basolateral medium [1, 11]: No virus was detected
Delay of the peak of viral production ([1]; oseltamivir 1 μM, diltiazem 90 μM (10-fold CMAP)): 24 h
Reduction in apical peak viral titers compared to the untreated control ([1]; oseltamivir 1 μM, diltiazem 90 μM or both, 48 h p.i. untreated vs. 72 h p.i. treated): > 2 log
Δ TEER (CI95) [2, 7]: 35.10 (10.96 – 59.23) Ohm/cm^2
Δ TEER (CI95) ([2]; 24 h p.i., oseltamivir 1 µM, diltiazem 90 µM or both): 86.13 (3.72 – 168.5) Ohm/cm^2
Δ TEER (CI95) [2, 8]: -48.31 (-180.1 – 83.47) Ohm/cm^2
Δ TEER (CI95) ([2]; 48 h p.i., oseltamivir 1 µM, diltiazem 90 µM or both): 120.1 (-85.77 – 326.00) Ohm/cm^2
Δ TEER (CI95) [2, 9]: -218.0 (255.6 – -180.4) Ohm/cm^2
Δ TEER (CI95) ([2]; 72 h p.i., oseltamivir 1 µM, diltiazem 90 µM or both): -115.5 (-308.5 – 77.52) Ohm/cm^2
Δ TEER (CI95) [2, 10]: -220.5 (-267.4 – -173.5) Ohm/cm^2
TEER during the time-course of infection ([2]; oseltamivir 1 μM, diltiazem 90 μM or both): partially buffered the TEER decrease
Clinical benefit in terms of survival vs saline (placebo) group ([3]; […], mg/kg/day: oseltamivir 10, monensin 10, diltiazem 90, etilefrine 3, lanatoside C 100, prednisolone 5, flucytosine 240, felbinac 5, timolol 50): significantly improved survival
Weight loss vs saline (placebo) group ([3]; […], oseltamivir 10, diltiazem 90, etilefrine 3 mg/kg/day): significantly improved
Reduction in lung viral titers (LVTs) on day 5 p.i. ([3]; mouse, in vivo): at least 1 log
Hazard ratio (HR) for the saline group compared to treatment group (CI95) ([4]; […], diltiazem 45 mg/kg): 7.62 (1.49–38.96)
Mice rescued from death ([4]; […], half-dose diltiazem 45 mg/kg): 30%
Survival ([4]; […], mg/kg/day: oseltamivir 10, monensin 10, diltiazem 90, etilefrine 3): completely prevented mortality
Hazard ratio (HR) for the saline group compared to treatment group (CI95) [4, 12]: 2.85 (0.56–14.47)
Mice rescued from death [4, 12]: 20%
Weight loss ([4]; […], oseltamivir 10, monensin 10, diltiazem 90 mg/kg/day): reduced weight loss
Mean weight loss ([4]; mouse, in vivo): significant improvement
Relative Viral production (B/Massachusetts/2/2106; dose CMAP): 4.7 % of mock-treated
Viral titer (B/Massachusetts/2/2106; dose CMAP): 3.97 log TCID50/ml
Relative Viral production (B/Massachusetts/2/2106; dose CMAP/10): 10.0 % of mock-treated
Viral titer (B/Massachusetts/2/2106; dose CMAP/10): 4.3 log TCID50/ml
Treatment-induced toxicity (LDH release) [5]: absence of treatment-induced toxicity
Effect of virus pre-incubation on final viral titers vs PBS-incubated controls (A(H1N1)pdm09 virus; pre-incubation before infection): did not affect final viral titers
Viral titer, Dilution #2 (A(H1N1)pdm09 virus; virus 10^5 TCID50/mL pre-incubated 1 h, diltiazem 9 µM, etilefrine 18 µM, oseltamivir 1 µM): 4.63 log TCID50/ml
Viral titer, Dilution #1 (A(H1N1)pdm09 virus; virus 10^6 TCID50/mL pre-incubated 1 h, diltiazem 9 µM, etilefrine 18 µM, oseltamivir 1 µM): 5.63 log TCID50/ml
Mean relative Viral production (A(H1N1)pdm09 virus; virus pre-incubated 1 h, relative to PBS control): 156.9 % of mock-treated
Relative Viral production (A/Texas/126/2016 (H3N2); dose CMAP): 7.9 % of mock-treated
Viral titer (A/Texas/126/2016 (H3N2); dose CMAP): 4.92 log TCID50/ml
Relative Viral production (A/Texas/126/2016 (H3N2); dose CMAP/10): 12.75 % of mock-treated
Viral titer (A/Texas/126/2016 (H3N2); dose CMAP/10): 5.13 log TCID50/ml
EC50 [6]: 0.84 nM

Source: paper PMC6361841, “Repurposing of Drugs as Novel Influenza Inhibitors From Clinical Gene Expression Infection Signatures” (Frontiers in Immunology, 2019)
